Experimental data: ChEMBL document CHEMBL1201862, “PubChem BioAssay data set” (2004)
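Briefly, cells in 96-well plates were exposed to five compound concentrations for 48 h, and endpoints were estimated by linear interpolation. GI50: concentration for 50% inhibition of growth.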 The source made the active and inactive calls. Cut-off read from the data, not from the text of the source: active = GI50 up to about 1.1 µM and inactive = higher.

Columns and labels:
Assay in all cases: inhibition of tumour cell growth, NCI panel, 48 h
K562 = system: K562
U-251 = system: U-251
OVCAR-3 = system: OVCAR-3
SF-539 = system: SF-539
HCT-15 = system: HCT-15
MDA-MB-231 = system: MDA-MB-231
UACC-62 = system: UACC-62
KM12 = system: KM12
OVCAR-5 = system: OVCAR-5
M14 = system: M14
786-0 = system: 786-0
TK-10 = system: TK-10
SF-295 = system: SF-295
OVCAR-4 = system: OVCAR-4
RXF 393 = system: RXF 393
HT-29 = system: HT-29
CCRF-CEM = system: CCRF-CEM
ACHN = system: ACHN
HL-60 = system: HL-60

| SMILES | GI50 (K562) | GI50 (U-251) | GI50 (OVCAR-3) | GI50 (SF-539) | GI50 (HCT-15) [µM] | GI50 (MDA-MB-231) | GI50 (UACC-62) | GI50 (KM12) | GI50 (OVCAR-5) | GI50 (M14) | GI50 (786-0) | GI50 (TK-10) | GI50 (SF-295) | GI50 (OVCAR-4) | GI50 (RXF 393) | GI50 (HT-29) | GI50 (CCRF-CEM) | GI50 (ACHN) | GI50 (HL-60) |
| --- | --- | --- | --- | --- | --- | --- | --- | --- | --- | --- | --- | --- | --- | --- | --- | --- | --- | --- | --- |
| Fc1cccc(F)c1C1SCc2nc3cc4ccccc4cc3n21 (stereo not drawn) | 12.1 µM (inactive) | 30.7 µM (inactive) | 15.7 µM (inactive) | 17.2 µM (inactive) | 16 | 27.5 µM (inactive) | 23.4 µM (inactive) | 34 µM (inactive) | 64 µM (inactive) | 29.7 µM (inactive) | 31.2 µM (inactive) | 96.6 µM (inactive) | 29.7 µM (inactive) | 3.16 µM (inactive) | 28.4 µM (inactive) | 20.2 µM (inactive) | 22.4 µM (inactive) | – | – |
| CCCCCCCCC/C=C1/CC(CO)(COC(=O)C2CCCCC2)OC1=O (stereo not drawn) | 67.5 µM (inactive) | > 100 µM (inactive) | > 100 µM (inactive) | – | > 100 | > 100 µM (inactive) | > 100 µM (inactive) | > 100 µM (inactive) | > 100 µM (inactive) | > 100 µM (inactive) | > 100 µM (inactive) | > 100 µM (inactive) | > 100 µM (inactive) | > 100 µM (inactive) | > 100 µM (inactive) | > 100 µM (inactive) | > 100 µM (inactive) | > 100 µM (inactive) | – |
| COc1cc(C2C(Cl)C(=O)N2n2cnc3ccccc3c2=O)ccc1O (stereo not drawn) | – | 73.1 µM (inactive) | 85.1 µM (inactive) | – | 87.3 | – | 60.8 µM (inactive) | > 100 µM (inactive) | > 100 µM (inactive) | > 100 µM (inactive) | > 100 µM (inactive) | > 100 µM (inactive) | > 100 µM (inactive) | 94.4 µM (inactive) | 67.6 µM (inactive) | > 100 µM (inactive) | 80 µM (inactive) | > 100 µM (inactive) | > 10 µM (inactive) |
| COc1cc(/C=N/N=C(\N)NO)c(Cl)cc1O | 83.2 µM (inactive) | > 100 µM (inactive) | – | 81.3 µM (inactive) | 46.5 | – | 47.1 µM (inactive) | 45.3 µM (inactive) | 46.7 µM (inactive) | – | 46.6 µM (inactive) | – | 96.2 µM (inactive) | 43.8 µM (inactive) | 81.5 µM (inactive) | 44.5 µM (inactive) | > 100 µM (inactive) | 42.5 µM (inactive) | – |
| COc1cc(N(Cc2ccc3nc(OC)c(OC)nc3c2)Cc2ccc3nc(OC)c(OC)nc3c2)cc(OC)c1OC | – | 19.8 µM (inactive) | 31.5 µM (inactive) | 26.3 µM (inactive) | > 50 | – | > 50 µM (inactive) | > 50 µM (inactive) | > 50 µM (inactive) | > 50 µM (inactive) | 16.3 µM (inactive) | 30.8 µM (inactive) | 19.6 µM (inactive) | > 50 µM (inactive) | 10.7 µM (inactive) | > 50 µM (inactive) | – | 42.2 µM (inactive) | > 50 µM (inactive) |
| COc1ccc(/C=C2\CN(C)CC3C2=NN(c2ccccc2)C3c2ccc(OC)cc2)cc1 (stereo not drawn) | > 100 µM (inactive) | – | > 100 µM (inactive) | – | > 100 | – | 75 µM (inactive) | > 100 µM (inactive) | > 100 µM (inactive) | 27.2 µM (inactive) | 27.7 µM (inactive) | 26.1 µM (inactive) | 62.2 µM (inactive) | > 100 µM (inactive) | 13 µM (inactive) | > 100 µM (inactive) | > 100 µM (inactive) | 77.1 µM (inactive) | – |
| NS(=O)(=O)c1nnc(NS(=O)(=O)c2ccc(F)cc2)s1 | > 100 µM (inactive) | > 100 µM (inactive) | > 100 µM (inactive) | > 100 µM (inactive) | > 100 | > 100 µM (inactive) | > 100 µM (inactive) | > 100 µM (inactive) | > 100 µM (inactive) | > 100 µM (inactive) | > 100 µM (inactive) | > 100 µM (inactive) | > 100 µM (inactive) | > 100 µM (inactive) | > 100 µM (inactive) | – | > 100 µM (inactive) | > 100 µM (inactive) | – |
| Oc1ccncc1-c1cnccc1O | > 100 µM (inactive) | > 100 µM (inactive) | > 100 µM (inactive) | > 100 µM (inactive) | > 100 | – | > 100 µM (inactive) | > 100 µM (inactive) | – | > 100 µM (inactive) | > 100 µM (inactive) | > 100 µM (inactive) | > 100 µM (inactive) | – | > 100 µM (inactive) | > 100 µM (inactive) | > 100 µM (inactive) | > 100 µM (inactive) | > 100 µM (inactive) |
| COc1cc(C2C3=C(CCCC3=O)N(c3ccc(C)cc3)C3=C2C(=O)CCC3)c([N+](=O)[O-])cc1OC | 79.3 µM (inactive) | 42 µM (inactive) | 96.2 µM (inactive) | 61.1 µM (inactive) | 68.1 | – | 90.4 µM (inactive) | > 100 µM (inactive) | > 100 µM (inactive) | > 100 µM (inactive) | 63.1 µM (inactive) | > 100 µM (inactive) | – | 45.4 µM (inactive) | 30 µM (inactive) | 59.4 µM (inactive) | 40.7 µM (inactive) | 65.3 µM (inactive) | 45.4 µM (inactive) |
| COc1ccc(NC(=S)c2ccc(CN3CCCCC3)s2)cc1 | 12.5 µM (inactive) | 17.1 µM (inactive) | 33.6 µM (inactive) | 43.9 µM (inactive) | 12.8 | – | 17.1 µM (inactive) | 17.7 µM (inactive) | 16.4 µM (inactive) | 16.7 µM (inactive) | 17.8 µM (inactive) | – | 18.3 µM (inactive) | 29 µM (inactive) | – | 5.46 µM (inactive) | 14.8 µM (inactive) | 31 µM (inactive) | 14.3 µM (inactive) |
| CC(C)CCNC(=O)c1ccc(CNC(=O)/C=C/c2cccc(Oc3ccccc3)c2)cc1 | > 100 µM (inactive) | 28.8 µM (inactive) | 28.4 µM (inactive) | 11.6 µM (inactive) | 38.6 | 24.1 µM (inactive) | 23.8 µM (inactive) | 44 µM (inactive) | > 100 µM (inactive) | 31 µM (inactive) | 24 µM (inactive) | 22.6 µM (inactive) | 23.8 µM (inactive) | 27.7 µM (inactive) | 18.6 µM (inactive) | 30.5 µM (inactive) | – | 48.4 µM (inactive) | – |
| Cc1ccsc1/C=N/Nc1nc2ccccc2s1 | 14.7 µM (inactive) | 13.5 µM (inactive) | 12.9 µM (inactive) | – | 50.5 | 12.8 µM (inactive) | 27.9 µM (inactive) | 24.2 µM (inactive) | 40.9 µM (inactive) | 28.1 µM (inactive) | 12.3 µM (inactive) | 13.9 µM (inactive) | 10.6 µM (inactive) | 19.7 µM (inactive) | 6.27 µM (inactive) | 34.6 µM (inactive) | 15.4 µM (inactive) | 14 µM (inactive) | – |
| N#CC(=C1C=CC(=NO)C=C1)c1ccc(Cl)cc1 | 3.78 µM (inactive) | 13.6 µM (inactive) | 3.52 µM (inactive) | 7.33 µM (inactive) | 13.7 | – | 3.71 µM (inactive) | 1.69 µM (inactive) | 11.9 µM (inactive) | 16.4 µM (inactive) | 2.29 µM (inactive) | 24.7 µM (inactive) | 16.6 µM (inactive) | 22.5 µM (inactive) | 16 µM (inactive) | 5.56 µM (inactive) | 2.69 µM (inactive) | 10.6 µM (inactive) | 2.36 µM (inactive) |
